Source: US20140335050A1, “METHODS, COMPOSITIONS, AND KITS FOR THE TREATMENT OF CANCER” (The General Hospital Corporation, priority 2011, published 2014)
“Also recorded” adds a separate entry of the source.

Legend:
[1] = test system: B16 murine melanoma cell line; assay: Antibody staining and flow cytometry (intracellular gp100, TRP-2; surface Class I with H2kb antibody); format: cell-based, mouse; settings: 3 days, 17-AEP 0.5, PU-H71 0.15, CCT018159 2.5 μg/ml
Source text: To further evaluate enhancement of immune recognition of cancer cells by inhibition of Hsp90 function, it was shown that a total of twelve different Hsp90 inhibitors were active in several molecular and cellular assays on a series of cell lines, including eleven human melanomas, the murine B16 melanoma, and two human gliomas. […] The melanomas all express varying levels of differentiation antigens Melan-A/MART-1, gp100 and TRP-2, as well as the MHC-Class I antigen (as evidenced by W6/32 antibody staining) that is required for T cell recognition of the tumor cells. Each of these antigens is enhanced by all of the Hsp90 inhibitors. […] Similar to the human counterparts, the B16 mouse tumor also can be induced to express enhanced antigen levels upon 3-day exposure to each of the Hsp90 inhibitors (Table 16). The mouse H-2 Class I antigen is likewise induced by the Hsp90 inhibitors.
General culture conditions for cell propagation and the origins of most of the melanoma cell lines have been previously described. Melanoma cells were cultured in DMEM with 10% FBS. The glioma cell lines U87 MG and U118 MG were obtained from the American Type Culture Collection (ATCC). The B16 murine melanoma cell line was provided by Dr. Andrew Hurwitz and has been previously described. The T cell receptor (TCR)-negative Jurkat T cell line derivative J.RT3-T3.5 was obtained from ATCC. The construction of the J.RT3-T3.5 cell line expressing a Melan-A/MART-1 specific TCR has been described previously. T cells were cultured in RPMI with 10% FBS. IFN-beta-1a (Avonex) was obtained from Biogen-Idec (Cambridge, Mass.) and reconstituted according to the manufacturer's recommendations. The Hsp90 inhibitor radicicol was purchased from A.G. Scientific (San Diego, Calif.). Novobiocin was ordered from BioMol (Plymouth Meeting, Pa.). 17-DMAG was obtained from LC laboratories (Woburn, Mass.). 17-AEP-AP was purchased from InVivoGen (San Diego, Calif.). […] Gedunin, CCT018159, and celastrol were purchased from Tocris (Ellisville, Mo.). Selleck Chemicals (Houston, Tex.) provided NVP-AUY922 and BIIB021.
Cells were plated at a density of 1×10^5 in 1 ml of medium in a 24-well plate and cultured for varying times as indicated in results. Typically, 3 days of culture in the presence of Hsp90 inhibitors was optimal for the functional studies performed. After incubation, cells were collected by trypsinization and then evaluated by flow cytometry.
(§1) Intracellular staining and flow cytometric analyses of cytoplasmic Melan-A/MART-1, and gp100 expression were performed as described previously. Cells were fixed with 1% formaldehyde, permeabilized with 0.1% saponin, stained with monoclonal antibodies to melanocyte antigens. Antibodies were obtained with specificity for: Melan-A/MART-1 from Vector Labs (Burlingame, Calif.); gp100/HMB45 from DakoCytomation (Carpinteria, Calif.) and then visualized with goat anti-mouse FITC-conjugated secondary antibody from Invitrogen (Frederick, Md.). The level of EGFP was determined by flow cytometry of unfixed cells washed and resuspended in 1×PBS. Surface staining of MHC Class I was carried out using the antibody W6/32 on cells harvested with Cell Stripper from MediaTech Inc. (Manassas, Va.) and carried out on ice.

MU89 melanoma cell line = assay: Antibody staining and flow cytometry (intracellular Melan-A/MART-1, gp100, TRP-2; surface MHC Class I/II); format: cell-based, human
Description: (§2) Cells were fixed with 1% formaldehyde, permeabilized with 0.1% saponin, stained with monoclonal antibodies to melanocyte antigens. Antibodies were obtained with specificity for: MART-1 from Vector Labs (Burlingame, Calif.); gp100 HMB45 from DakoCytomation (Carpinteria, Calif.) and then visualized with goat anti-mouse FITC-conjugated secondary antibody from Invitrogen (Fredrick, Md.). The level of EGFP was determined by flow cytometry of unfixed cells that were washed and resuspended in 1×PBS.
(§3) Cells were plated at a density of 1×10^5 in 1 ml of medium in a 24-well plate and cultured for varying times as indicated in results. […] After incubation, cells were collected by trypsinization and then evaluated by flow cytometry.
as §1
(§4) Cell were seeded at 1×10^6 cells in a T25 flask with 10 ml of media for the 4 day IFN-beta pre-treatments. Cells were then harvested and plated in 24 well plate at 1×10^5 cells per well in 1 ml of media for 3 day treatments.
(§5) For surface staining of HLA Class I and II antigens, cells were harvested using CellStripper™ from Mediatech (Manassas, Va.). All staining steps were performed on ice. Following a first incubation with antibody to Class I (W6/32) or Class II (L243) for 30 minutes. Stained cells were washed twice with cold PBS and then stained with a goat anti-mouse FITC secondary antibody to allow for quantitative analysis by flow cytometry. For evaluation of cytoplasmic antigens, including Melan-A/MART-1 and gp100, cells were first fixed in paraformaldehyde and permeabilized with saponin as previously described. Staining for cytoplasmic antigens was carried out at room temperature (22° C.).

U-87 MG glioma cell line = assay: Antibody staining and flow cytometry (intracellular gp100; surface MHC Class I); format: cell-based, human
Description: as §2, §3, §1

A375 melanoma cell line = assay: Antibody staining and flow cytometry (intracellular Melan-A/MART-1, gp100, TRP-2; surface MHC Class I); format: cell-based, human
Description: as §2, §3, §1, §4, §5

MUX melanoma cell line = assay: as above; format: cell-based, human; settings: MUX
Description: as §2, §3, §1, §4, §5

[2] = MU89, 3 days, IFN-beta 5000 Units/ml, 17-AEP 1.0, PU-H71 0.3, CCT018159 10.0 μg/ml
[3] = MU89, three days, IFN-β 5000 Units/ml, IFN-γ 100 ng/ml, PU-H71 0.3 mg/ml
[4] = MU89 cells, Table 20, single agent or simultaneous combination
[5] = U-87 MG, 3 days, IFN-beta 5000 Units/ml, 17-AEP 0.5, PU-H71 0.3, CCT018159 5.0 μg/ml
[6] = 3 days, IFN-beta 5000 Units/ml, 17-AEP 0.5, PU-H71 0.15, CCT018159 2.5 μg/ml
[7] = 3 days, IFN-beta 5000 Units/ml, 17-AEP 1.0, PU-H71 0.3, CCT018159 10.0 μg/ml

CC(C)NCCCn1c(Sc2cc3c(cc2I)OCO3)nc2c(N)ncnc21 [PU-H71]
Class I, geometric mean of surface staining (H2kb) [1]: 14
TRP-2, geometric mean of intracellular staining [1]: 360
gp100, geometric mean of intracellular staining [1]: 595
Class I, geometric mean of surface staining (W6/32) (MU89 melanoma cell line; [2]): 66
MART-1, geometric mean of intracellular staining (MU89 melanoma cell line; [2]): 147
TRP-2, geometric mean of intracellular staining (MU89 melanoma cell line; [2]): 214
gp100, geometric mean of intracellular staining (MU89 melanoma cell line; [2]): 381
MHC Class I, geometric mean of surface staining (W6/32) (MU89 melanoma cell line; MU89, 4 day IFN-β pre-treatment (5000 Units/ml), then 3 days with fresh IFN-β and the labelled HSP90 inhibitor (label IFN-β: no inhibitor), 17-AEP 1, PU-H71 0.3, CCT018159 10 mg/ml): 390
MHC Class I, geometric mean of surface staining (W6/32) (MU89 melanoma cell line; MU89, 4 day IFN-β pre-treatment (5000 Units/ml), then 3 days without IFN-β with the labelled HSP90 inhibitor (label IFN-β: no inhibitor), 17-AEP 1, PU-H71 0.3, CCT018159 10 mg/ml): 307
Class I antigen induction, sequential treatment (MU89 melanoma cell line; MU89, IFN-beta pre-treatment, then PU-H71 for 3 days (FIG. 22)): synergistically enhanced; also recorded: far exceeded what was achieved with either drug alone
Class II antigen level, sequential treatment (MU89 melanoma cell line; MU89, IFN-gamma for 3 days, subsequently PU-H71 (FIG. 23)): significantly greater than that achieved with IFN-gamma alone
MHC Class I, geometric mean of surface staining (W6/32) (MU89 melanoma cell line; MU89, single agent for 3 days, no IFN-β pre-treatment, IFN-β 5000 Units/ml): 75
MHC Class I, geometric mean of surface staining (W6/32) (MU89 melanoma cell line; MU89, three days, IFN-β 5000 Units/ml): 66
MHC Class I, geometric mean of surface staining (W6/32) (MU89 melanoma cell line; [3]): 99
MHC Class II, geometric mean of surface staining (L2443) (MU89 melanoma cell line; [3]): 43
L243 (MHC Class II surface staining) (MU89 melanoma cell line; [4]): 4.1
W6/32 (MHC Class I surface staining) (MU89 melanoma cell line; [4]): 72.1
L243 (MHC Class II surface staining) (MU89 melanoma cell line; MU89 cells, Table 21, no pre-treatment, treatment as labelled): 5
L243 (MHC Class II surface staining) (MU89 melanoma cell line; MU89 cells, Table 21, pre-treatment IFN-G (3 days), then treatment as labelled): 338
L243 (MHC Class II surface staining) (MU89 melanoma cell line; MU89 cells, Table 21, substance given as pre-treatment (3 days) only, no subsequent treatment): 2
Class II induction by IFN-gamma, combination (MU89 melanoma cell line; MU-89, Hsp90 inhibitor together with IFN-gamma): ablation of the IFN-gamma induction of Class II antigen
Class I expression, combination (MU89 melanoma cell line; MU-89, PU-H71 together with IFN-beta): additive effect
Class I induction by IFN-gamma, combination (MU89 melanoma cell line; MU-89, PU-H71 together with IFN-gamma): not further enhanced
L243 (MHC Class II surface staining) (MU89 melanoma cell line; MU-89, single agent): 4.5
Class I, geometric mean of surface staining (W6/32) (U-87 MG glioma cell line; [5]): 53
gp100, geometric mean of intracellular staining (U-87 MG glioma cell line; [5]): 66
MHC Class I, geometric mean of surface staining (W6/32) (U-87 MG glioma cell line; U-87 glioma, three days, IFN-β 5000 Units/ml, PU-H71 0.075-0.3): 71
Class I, geometric mean of surface staining (W6/32) (A375 melanoma cell line; [6]): 71
MART-1, geometric mean of intracellular staining (A375 melanoma cell line; [6]): 11
TRP-2, geometric mean of intracellular staining (A375 melanoma cell line; [6]): 26
gp100, geometric mean of intracellular staining (A375 melanoma cell line; [6]): 24
MHC Class I, geometric mean of surface staining (W6/32) (A375 melanoma cell line; 4 day IFN-β pre-treatment (5000 Units/ml), then 3 days with fresh IFN-β and the labelled HSP90 inhibitor (label IFN-β: no inhibitor), 17-AEP 0.5, PU-H71 0.15, CCT018159 2.5): 226
MHC Class I, geometric mean of surface staining (W6/32) (A375 melanoma cell line; 4 day IFN-β pre-treatment (5000 Units/ml), then 3 days without IFN-β with the labelled HSP90 inhibitor (label IFN-β: no inhibitor), 17-AEP 0.5, PU-H71 0.15, CCT018159 2.5): 174
MHC Class I, geometric mean of surface staining (W6/32) (A375 melanoma cell line; single agent for 3 days, no IFN-β pre-treatment, IFN-β 5000 Units/ml, 17-AEP 0.5, PU-H71 […], CCT018159 2.5): 131
MHC Class I, geometric mean of surface staining (W6/32) (A375 melanoma cell line; three days, IFN-β 5000 Units/ml, 17-AEP 0.5, PU-H71 […], CCT018159 2.5): 71
Class I, geometric mean of surface staining (W6/32) (MUX melanoma cell line; [7]): 212
MART-1, geometric mean of intracellular staining (MUX melanoma cell line; [7]): 19
TRP-2, geometric mean of intracellular staining (MUX melanoma cell line; [7]): 41
gp100, geometric mean of intracellular staining (MUX melanoma cell line; [7]): 32
MHC Class I, geometric mean of surface staining (W6/32) (MUX melanoma cell line; 4 day IFN-β pre-treatment (5000 Units/ml), then 3 days with fresh IFN-β and the labelled HSP90 inhibitor (label IFN-β: no inhibitor), 17-AEP 1, PU-H71 0.3, CCT018159 10 mg/ml): 579
MHC Class I, geometric mean of surface staining (W6/32) (MUX melanoma cell line; 4 day IFN-β pre-treatment (5000 Units/ml), then 3 days without IFN-β with the labelled HSP90 inhibitor (label IFN-β: no inhibitor), 17-AEP 1, PU-H71 0.3, CCT018159 10 mg/ml): 477
MHC Class I, geometric mean of surface staining (W6/32) (MUX melanoma cell line; single agent for 3 days, no IFN-β pre-treatment, IFN-β 5000 Units/ml, 17-AEP 1 μg/ml, PU-H71 0.3 μg/ml, CCT018159 10 μg/ml): 282
MHC Class I, geometric mean of surface staining (W6/32) (MUX melanoma cell line; three days, IFN-β 5000 Units/ml, 17-AEP 1 μg/ml, PU-H71 0.3 μg/ml, CCT018159 10 μg/ml): 212
